The numbers were not newly measured in patent US7422908B2, “Chemiluminescent 1,2-dioxetanes” (priority 2002, dated 2008), which cites them from elsewhere.

Each structure is given as a SMILES string.

For series [1] the following is noted: thermal decomposition.
For series [2] the following is noted: compared with 1,2-dioxetanes (14) and (15); CH3 group replaced with CH2CH2CH2COOH.

As to `C1C2CC3CC1CC(C2)C31OOC12C1CC3CC(C1)CC2C3` (centres unmarked) [Dioxetane 5], in series [1], the “decomposes at (temperature)” value is 150 °C.

With `O=C(O)CCCOC1(c2cccc(OP(=O)(O)O)c2)OOC12C1CC3CC(C1)CC2C3` (centres unmarked) [Dioxetane 16], in series [2], the “solubility in an aqueous system” value was “more soluble in an aqueous system than 1,2-dioxetane (14) and (15)”.
